Data taken from patent publication US20050267038A1, “Novel diphenylazetidinones, process for their preparation, medicaments comprising these compounds and their use” (Aventis Pharma Deutschland GmbH, priority 2000, published 2005).

Test system: Caco-2 cell monolayers
Test: Bioabsorption, Caco cell model
Format: in vitro ADME
Details: estimated from Caco cell model
Source text: (§1) The bioabsorption of the compounds of the formula I can be examined using the Caco cell model (A. R. Hilgers et al., Caco-2 cell monolayers as a model for drug transport across the intestinal mucosa, Pharm. Res. 1990, 7, 902).
(§2) Below is a bioabsorption measurement for a reference compound: […]

Q: Which Estimated human bioabsorption does the source give for O=C1[C@H](CC[C@H](O)c2ccc(F)cc2)[C@@H](c2ccc(O)cc2)N1c1ccc(F)cc1 [Ezetimibe] here?
A: Its Estimated human bioabsorption is 100%.

Test system: not listed separately
Test: Bioabsorption, Caco cell model
Format: in vitro ADME
Details: human, Caco-2; Caco cell model; read-out: Apparent partition coefficient Papp (according to Lit. Hilgers)
Source text: as §1, §2

Q: Which Papp does the source give for O=C1[C@H](CC[C@H](O)c2ccc(F)cc2)[C@@H](c2ccc(O)cc2)N1c1ccc(F)cc1 [Ezetimibe] here?
A: Its Papp is 4.88 ×10⁻⁶ cm/s.

Test system: cholesterol absorption
Test: Cholesterol absorption test: uptake of 14C-cholesterol by the liver
Format: in vivo, mouse
Details: dose at which the uptake of 14C-cholesterol by the liver is halved (50%), based on a control group; test substance given immediately prior to peroral test meal; liver after 24 h
Source text: Effect on Cholesterol Absorption +^3H-Taurocholic Acid Excretion Using Fecal Excrement of Mice, Rats or Hamsters
NMRI mice, Wistar rats, or Golden Syrian hamsters (in groups of n=4-6) are kept in metabolic cages, where they are fed with a standard diet (Altromin, Lage (Lippe)). The afternoon prior to the administration of the radioactive tracers (^14C-cholesterol), the feed is removed and the animals are adapted to grates.
Additionally, the animals are labeled s.c. with ^3H-TCA (taurocholic acid) (for example 1 μCi/mouse up to 5 μCi/rat) 24 hours prior to the peroral administration of the test meal (^14C-cholesterol in Intralipid® 20, Pharmacia-Upjohn).
Cholesterol absorption test: 0.25 ml/mouse Intralipid® (Pharmacia-Upjohn) ((spiked with 0.25 μCi of ^14C-cholesterol in 0.1 mg of cholesterol) is administered perorally by gavage.
Test substances are prepared separately in 0.5% methylcellulose (Sigma)/5% Solutol (BASF, Ludwigshafen) or a suitable vehicle.
The administration volume of the test substance is 0.5 ml/mouse. The test substance is administered immediately prior to the test meal (Intralipid labeled with ^14C-cholesterol) (cholesterol absorption test).
The feces are collected over a period of 24 h: fecal elimination of ^14C-cholesterol and ^3H-taurocholic acid (TCA) is determined after 24 hours.
The livers are removed and homogenized, and aliquots are incinerated in an oximate (Model 307, Packard) to determine the amount of ^14C-cholesterol which had been taken up/absorbed.
The amount of ^14C-cholesterol taken up by the liver is based on the administered dose. The ED50 values are interpolated from a dose-effect curve as the dose at which the uptake of ^14C-cholesterol by the liver is halved (50%), based on a control group.

Q: For C[N+](C)(C)CCCCCOc1ccc(C2C(CCC(O)c3ccc(F)cc3)C(=O)N2c2ccc(F)cc2)cc1.[Br-] (stereo not drawn) [XXIV, [5-(4-{1-(4-Fluorophenyl)-3-[3-(4-fluorophenyl)-3-hydroxypropyl]-4-oxoazetidin-2-yl}phenoxy)pentyl]trimethylammonium bromide], which “ED50 (liver)” value is on record?
A: Its value is 0.3 mg/mouse.

Q: With O=C(COCCOCC(=O)NCc1ccc(C2C(CCC(O)c3ccc(F)cc3)C(=O)N2c2ccc(F)cc2)cc1)NCCOCCOCC(=O)C(O)C(O)C(O)C(O)CO (stereo not drawn) [XIII, N-(4-{1-(4-Fluorophenyl)-3-[3-(4-fluorophenyl)-3-hydroxypropyl]-4-oxoazetidin-2-yl}-benzyl)-2-[2-({2-[2-(3,4,5,6,7-pentahydroxy-2-oxoheptyloxy)ethoxy]-ethylcarbamoyl}-methoxy)ethoxy]acetamide] as the molecule, how does the “ED50 (liver)” value read?
A: Its value is 0.3 mg/mouse.

Q: Which “ED50 (liver)” value does the source give for COc1ccc(C2C(CCC(O)c3ccc(F)cc3)C(=O)N2c2ccc(CNC(C)=O)cc2)cc1 (stereo not drawn) [Example XX, N-{4-[3-[3-(4-Fluorophenyl)-3-hydroxypropyl]-2-(4-methoxyphenyl)-4-oxoazetidin-1-yl]benzyl}acetamide] here?
A: The value was 0.03 mg/mouse.

Q: For CN(CCCCOc1ccc(C2C(CCC(O)c3ccc(F)cc3)C(=O)N2c2ccc(F)cc2)cc1)CC(O)C(O)C(O)C(O)CO (stereo not drawn) [XXV, 1-(4-Fluorophenyl)-3-[3-(4-fluorophenyl)-3-hydroxypropyl]-4-(4-{4-[methyl-(2,3,4,5,6-pentahydroxyhexyl)amino]butoxy}phenyl)azetidin-2-one], which “ED50 (liver)” value is on record?
A: Its value is 0.3 mg/mouse.

Q: Which “ED50 (liver)” value does the source give for COc1ccc(C2C(CCC(O)c3ccc(F)cc3)C(=O)N2c2ccc(CNC(=O)CCCCN(Cc3ccccc3)CC(O)C(O)C(O)C(O)CO)cc2)cc1.O=C(O)C(F)(F)F (stereo not drawn) [Example XVIII, Benzyl-(4-{4-[3-[3-(4-fluorophenyl)-3-hydroxypropyl]-2-(4-methoxyphenyl)-4-oxoazetidin-1-yl]benzylcarbamoyl}butyl)-(2,3,4,5,6-pentahydroxyhexyl)ammonium trifluoroacetate] here?
A: Its value is 1.0 mg/mouse.

Q: Which “ED50 (liver)” value does the source give for C[N+](C)(C)CCCCC(NC(=O)OCC1c2ccccc2-c2ccccc21)C(=O)NCc1ccc(C2C(CCC(O)c3ccc(F)cc3)C(=O)N2c2ccc(F)cc2)cc1.[Cl-] (stereo not drawn) [Example XXI] here?
A: The value was 1.0 mg/mouse.

Q: Which “ED50 (liver)” value does the source give for O=C(NCc1ccc(C2C(CCC(O)c3ccc(F)cc3)C(=O)N2c2ccc(F)cc2)cc1)C(O)C(O)C(O)C(O)CO (stereo not drawn) [Example II] here?
A: Its value is 0.1 mg/mouse.

Q: For C[N+](C)(C)CCCC(=O)NCc1ccc(C2C(CCC(O)c3ccc(F)cc3)C(=O)N2c2ccc(F)cc2)cc1.O=C([O-])C(F)(F)F (stereo not drawn) [Example XV, [3-(4-{1-(4-Fluorophenyl)-3-[3-(4-fluorophenyl)-3-hydroxypropyl]-4-oxoazetidin-2-yl}benzylcarbamoyl)propyl]trimethylammonium trifluoroacetate], which “ED50 (liver)” value is on record?
A: The value was 0.01 mg/mouse.

Q: Which “ED50 (liver)” value does the source give for COc1ccc(C2C(CCC(O)c3ccc(F)cc3)C(=O)N2c2ccc(CNC(=O)CCCCCCCCCCCNC(=O)C(O)C(O)C(O)C(O)CO)cc2)cc1 (stereo not drawn) [III, N-4-[3-[3-(4-Fluorophenyl)-3-hydroxypropyl]-2-(4-methoxyphenyl)-4-oxoazetidin-1-yl]benzyl-12-(2,3,4,5,6-pentahydroxyhexanoylamino)dodecanamide] here?
A: Its value is 0.003 mg/mouse.

Q: Which “ED50 (liver)” value does the source give for CN(CCOCCOCCOc1ccc(C2C(CCC(O)c3ccc(F)cc3)C(=O)N2c2ccc(F)cc2)cc1)CC(O)C(O)C(O)C(O)CO (stereo not drawn) [Example XXX, 1-(4-Fluorophenyl)-3-[3-(4-fluorophenyl)-3-hydroxypropyl]-4-{4-[2-(2-{2-[methyl-(2,3,4,5,6-pentahydroxyhexyl)amino]ethoxy}ethoxy)ethoxy]phenyl}azetidin-2-one] here?
A: The value was 0.1 mg/mouse.
